Measured values reported in patent publication US9765065B2, “Therapeutic substituted cyclopentanes” (ALLERGAN, INC., priority 2007, dated 2017).

Experiments:
EP2 [1] = molecular target: T1, EP2 (Homo sapiens, UniProt P43116); assay: EP2 flipr; format: cell-based
Description: (§1) U.S. patent application Ser. No. 11/553,143, filed on Oct. 26, 2006, incorporated by reference herein in its entirety, describes the methods used to obtain the in vitro data in the table below.

EP2 [2] = molecular target: T1, EP2; assay: EP2 cAMP; format: cell-based
Description: as §1

EP2 [3] = molecular target: T1, EP2; assay: EP2 binding Ki
Description: as §1

hEP3A = molecular target: T2, hEP3A (Homo sapiens, UniProt P43115); assay: Other receptors hEP3A; format: cell-based
T2 sequence (P43115 1-390): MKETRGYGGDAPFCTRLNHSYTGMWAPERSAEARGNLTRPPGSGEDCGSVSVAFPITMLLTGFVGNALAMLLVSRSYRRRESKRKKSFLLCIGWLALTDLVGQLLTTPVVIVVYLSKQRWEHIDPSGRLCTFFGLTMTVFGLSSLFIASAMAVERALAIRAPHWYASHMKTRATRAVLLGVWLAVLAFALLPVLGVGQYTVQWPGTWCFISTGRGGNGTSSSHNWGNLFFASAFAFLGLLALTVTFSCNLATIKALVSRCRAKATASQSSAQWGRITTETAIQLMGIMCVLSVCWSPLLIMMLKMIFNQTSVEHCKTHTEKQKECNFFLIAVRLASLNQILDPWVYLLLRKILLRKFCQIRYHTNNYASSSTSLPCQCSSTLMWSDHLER
Description: as §1

EP4 [4] = molecular target: T3, EP4 (Homo sapiens, UniProt P35408); assay: EP4 flipr; format: cell-based
T3 sequence (P35408 whole entry): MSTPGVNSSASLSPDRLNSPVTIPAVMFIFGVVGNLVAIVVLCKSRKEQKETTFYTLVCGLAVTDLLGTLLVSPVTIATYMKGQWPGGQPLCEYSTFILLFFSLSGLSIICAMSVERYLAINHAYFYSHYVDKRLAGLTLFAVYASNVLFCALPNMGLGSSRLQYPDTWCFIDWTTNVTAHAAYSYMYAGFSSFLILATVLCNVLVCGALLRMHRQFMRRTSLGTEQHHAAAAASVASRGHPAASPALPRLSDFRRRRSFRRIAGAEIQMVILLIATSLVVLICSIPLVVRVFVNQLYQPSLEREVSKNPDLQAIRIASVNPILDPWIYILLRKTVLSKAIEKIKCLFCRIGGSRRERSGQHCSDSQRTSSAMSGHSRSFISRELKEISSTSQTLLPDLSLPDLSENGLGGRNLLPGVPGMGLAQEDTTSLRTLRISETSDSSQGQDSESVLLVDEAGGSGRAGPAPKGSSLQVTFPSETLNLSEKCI
Description: as §1

EP4 [5] = molecular target: T3, EP4; assay: EP4 binding Ki
Description: as §1

T1 sequence (P43116 whole entry): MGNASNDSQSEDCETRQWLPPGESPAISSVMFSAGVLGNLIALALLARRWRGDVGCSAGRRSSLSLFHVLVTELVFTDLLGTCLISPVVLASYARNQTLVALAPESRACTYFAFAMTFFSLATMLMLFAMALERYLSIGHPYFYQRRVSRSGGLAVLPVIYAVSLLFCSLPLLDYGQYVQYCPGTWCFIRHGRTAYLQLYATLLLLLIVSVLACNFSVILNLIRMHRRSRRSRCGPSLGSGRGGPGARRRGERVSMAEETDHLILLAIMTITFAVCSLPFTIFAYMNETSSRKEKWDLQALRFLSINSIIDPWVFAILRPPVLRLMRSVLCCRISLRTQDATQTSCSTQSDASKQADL

SMILES	EC50 (EP2 [1]) [nM]	EC50 (EP2 [2]) [nM]	Ki (EP2 [3]) [nM]	EC50 (hEP3A) [nM]	EC50 (EP4 [4]) [nM]	Ki (EP4 [5]) [nM]
O=C(O)c1ccc(CCC[C@H]2C(C(F)(F)F)C[C@@H](O)[C@@H]2C#Cc2ccccc2)s1 (single isomer, unassigned) [Example 23]	79	3	30	7100		
O=C(O)c1ccc(CCC[C@@H]2[C@@H](C#Cc3ccccc3)[C@H](O)C[C@H]2C(F)(F)F)s1 (single isomer, unassigned) [Example 24]	107	4	41			
O=C(O)c1ccc(CCC[C@@H]2[C@@H](/C=C/c3cncc(Cl)c3)[C@H](O)C[C@H]2Cl)s1 [Example 3, 5-(3-((1R,2R,3R,5R)-5-chloro-2-((E)-2-(5-chloropyridin-3-yl)vinyl)-3-hydroxycyclopentyl)propyl)-thiophene-2-carboxylic acid]	101	1.3	10		15900	3500
Cc1cc(C)cc(/C=C/[C@@H]2[C@@H](CCCc3ccc(C(=O)O)s3)[C@H](Cl)C[C@H]2O)c1 [Example 8, 5-(3-((1R,2R,3R,5R)-5-chloro-2-(3,5-dimethylstyryl)-3-hydroxycyclopentyl)propyl)thiophene-2-carboxylic acid]	328	1.4	8		10000	86
C/C=C/c1cc(Cl)cc(/C=C\[C@@H]2[C@@H](CCCc3ccc(C(=O)O)s3)[C@H](Cl)C[C@H]2O)c1 [Example 11, 5-(3-((1R,2R,3R,5R)-5-chloro-2-((Z)-3-chloro-5-((E)-prop-1-enyl)styryl)-3-hydroxycyclopentyl)propyl)thiophene-2-carboxylic acid]	2180	12	24		6460	239
O=C(O)c1ccc(CCC[C@@H]2C(=O)C[C@@H](O)[C@@H]2C#Cc2ccccc2)s1 [Example 18, 5-(3-((1S,2S,3R)-3-hydroxy-5-oxo-2-(phenylethynyl)cyclopentyl)propyl)thiophene-2-carboxylic acid]	22	0.6	30		3220	1790
O=C(O)c1ccc(CCC[C@@H]2[C@@H](C#Cc3ccsc3)[C@H](O)C[C@H]2Cl)s1 [Example 29, 5-(3-((1R,2S,3R,5R)-5-chloro-3-hydroxy-2-(thiophen-3-ylethynyl)cyclopentyl)propyl)thiophene-2-carboxylic acid]		3.3	64		5910	1870
O=C(O)c1ccc(CCC[C@@H]2[C@@H](C#Cc3ccncc3)[C@H](O)C[C@H]2Cl)s1 [Example 32, 5-(3-((1R,2S,3R,5R)-5-chloro-3-hydroxy-2-(pyridin-4-ylethynyl)cyclopentyl)propyl)thiophene-2-carboxylic acid]	306	7	79		> 10000	8670

These reach a lower EC50 (EP2 [2]). Values come first.

EC50 (EP2 [1]) [nM]	EC50 (EP2 [2]) [nM]	Ki (EP2 [3]) [nM]	EC50 (hEP3A) [nM]	EC50 (EP4 [4]) [nM]	Ki (EP4 [5]) [nM]	SMILES
44	0.09	2.3		15900	162	O=C(O)c1ccc(CCC[C@@H]2[C@@H](/C=C/c3cc(Cl)nc(Cl)c3)[C@H](O)C[C@H]2Cl)s1 [Example 4, 5-(3-((1R,2R,3R,5R)-5-chloro-2-((E)-2-(2,6-dichloropyridin-4-yl)vinyl)-3-hydroxycyclopentyl)propyl)-thiophene-2-carboxylic acid]
72	0.03	0.7	5780	17300	288	C=CCCc1cccc(/C=C/[C@@H]2[C@@H](CCCc3ccc(C(=O)O)s3)[C@H](Cl)C[C@H]2O)c1 [Example 9, 5-(3-((1R,2R,3R,5R)-2-(3-(but-3-enyl)styryl)-5-chloro-3-hydroxycyclopentyl)propyl)thiophene-2-carboxylic acid]
1640	0.1	1.4		> 10000	90	C/C=C/c1cc(Cl)cc(/C=C/[C@@H]2[C@@H](CCCc3ccc(C(=O)O)s3)[C@H](Cl)C[C@H]2O)c1 [Example 10, 5-(3-((1R,2R,3R,5R)-5-chloro-2-((E)-3-chloro-5-((E)-prop-1-enyl)styryl)-3-hydroxycyclopentyl)propyl)thiophene-2-carboxylic acid]
> 10000	0.4	2		> 10000	193	CCCc1cc(/C=C/[C@@H]2[C@@H](CCCc3ccc(C(=O)O)s3)[C@H](Cl)C[C@H]2O)ccn1 [Example 13, 5-(3-((1R,2R,3R,5R)-5-chloro-3-hydroxy-2-((E)-2-(2-propylpyridin-4-yl)vinyl)cyclopentyl)propyl)thiophene-2-113 carboxylic acid]
133	0.09	< 0.08		1910	466	O=C(O)c1ccc(CCC[C@@H]2[C@@H](C#Cc3cc(Cl)cc(Cl)c3)[C@H](O)C[C@H]2Cl)s1 [Example 25, 5-(3-((1R,2S,3R,5R)-5-chloro-2-((3,5-dichlorophenyl)ethynyl)-3-hydroxycyclopentyl)propyl)thiophene-2-carboxylic acid]
56	0.08	0.3		616	316	CCc1cccc(C#C[C@@H]2[C@@H](CCCc3ccc(C(=O)O)s3)[C@H](Cl)C[C@H]2O)c1 [Example 26, 5-(3-((1R,2S,3R,5R)-5-chloro-2-((3-ethylphenyl)ethynyl)-3-hydroxycyclopentyl)propyl)thiophene-2-carboxylic acid]
19	0.03	1		11000	436	C=CCCc1cccc(C#C[C@@H]2[C@@H](CCCc3ccc(C(=O)O)s3)[C@H](Cl)C[C@H]2O)c1 [Example 27, 5-(3-((1R,2S,3R,5R)-2-((3-(but-3-enyl)phenyl)ethynyl)-5-chloro-3-hydroxycyclopentyl)propyl)thiophene-2-carboxylic acid]
3	0.2	11		> 10000	2140	O=C(O)c1ccc(CCC[C@@H]2[C@@H](C#Cc3ccccn3)[C@H](O)C[C@H]2Cl)s1 [Example 30, 5-(3-((1R,2S,3R,5R)-5-chloro-3-hydroxy-2-(pyridin-2-ylethynyl)cyclopentyl)propyl)thiophene-2-carboxylic acid]
2	0.3	4		4200	1440	O=C(O)c1ccc(CCC[C@@H]2[C@@H](C#Cc3cccnc3)[C@H](O)C[C@H]2Cl)s1 [Example 31, 5-(3-((1R,2S,3R,5R)-5-chloro-3-hydroxy-2-(pyridin-3-ylethynyl)cyclopentyl)propyl)thiophene-2-carboxylic acid]
	0.22	2		8990	1520	O=C(O)c1ccc(CCC[C@@H]2[C@@H](C#Cc3cccc(CCCO)c3)[C@H](O)C[C@H]2Cl)s1 [Example 33, 5-(3-((1R,2S,3R,5R)-5-chloro-3-hydroxy-2-((3-(3-hydroxypropyl)phenyl)ethynyl)cyclopentyl)propyl)thiophene-2-carboxylic acid]
